Experimental findings from patent US20050054629A1, “Compounds and methods of treating cell proliferative diseases” (priority 2002, published 2005) are described below.

The test system of one data set is H460 lung carcinoma. The data set is described as follows: Cytotoxicity assay (MTT), 6 days. The data set is classed as cell-based. To be noted: Homo sapiens, NCI-H460, 144 h, 6 days of treatment, read-out: Toxicity 6d (IC 50, μM) H460. The source says: (§1) Four human tumoral cell lines, namely HCT116 colon adenocarcinoma, H460 lung carcinoma, MCF-7 and MDA-MB-231 breast carcinoma cell lines, and three immortalized but non tumorigenic cell lines, namely NIH3T3 mouse fibroblasts and human breast-derived MCF10-A and MRC-5 were purchased at ATCC and cultured according to their recommendations. In order to determine the cytotoxicity associated with one compound, a microculture tetrazolium assay (MTT), as described by Carmichael et al (Cancer Res, 1996) with modifications, was used. Briefly, 5.10^3 or 2.10^4 cells were seeded per well in 24-well plates 24 hours before drug addition. Cells were treated with 0, 1, 10, 17.5, 25 and 50 μM of compound solubilized in DMSO, adjusting the total volume of DMSO (Dimethylsulfoxide) to 1%. Forty-eight hours or 6 days after treatment, the medium was replaced by PBS containing 0.5 mg/ml MTT (Sigma) and cells were incubated for 3 more hours at 37° C. before solubilization of formazan crystals in 100% DMSO. Absorbance was measured using a spectrophotometer at a wavelength of 550 nm. Cell surviving fraction and 50% inhibitory concentration were calculated. All assays were performed in triplicate.

Another data set concerns MCF-7 breast carcinoma. The data set is described as follows: Cytotoxicity assay (MTT), 6 days. The data set is classed as cell-based. Particulars: Homo sapiens, MCF7, 144 h, 6 days of treatment, read-out: Toxicity 6d (IC 50, μM) MCF7.
Source text: as §1

Data set [1] deals with MDA-MB-231 breast carcinoma. Description: Cytotoxicity assay (MTT), 6 days. To be noted: Homo sapiens, MDA-MB-231, 144 h, 6 days of treatment, read-out: Toxicity 6d (IC 50, μM) MDA231. The data set is classed as cell-based.
Source text: as §1

In another data set the test system is NIH3T3 mouse fibroblasts. The data set is described as follows: Cytotoxicity assay (MTT), 6 days. The class given is cell-based. Particulars: NIH3T3, 144 h, 6 days of treatment, read-out: Toxicity 6d (IC 50, μM) NIH3T3.
Source text: as §1

In data set [2] the test system is HCT116 colon adenocarcinoma. Description: Cytotoxicity assay (MTT), 6 days. The class given is cell-based, human. Particulars: Homo sapiens, HCT-116, 144 h, 6 days of treatment, read-out: Toxicity 6d (IC 50, μM) HCT116.
Source text: as §1

A further data set has as its system HCT116. Description: Cell viability assay (MTT), Example 32. The data set is classed as cell-based, human. Particulars: for IC50: Homo sapiens, HCT-116, 144 h, day 6, 10% FBS. On the procedure:
FIG. 7: Antiproliferative effect of compounds on HCT116 (top) and MDA-MB-231 (bottom) cell lines measured by MTT viability assay. 2.5 10^3 (HCT116) or 7.5 10^3 (MDA-MB-231) cells were seeded in 48-well plates in growth medium containing 10% FBS, with or without various concentrations of test compounds. Cell cultures were fed every 3 days with the appropriate media. Cell viability was determined on day 6. Data were analyzed and IC50s were calculated from the dose-response curves using GraphPad Prism.
In order to determine one compound effect on cell viability, microculture tetrazolium assay (MTT) was performed as described by Carmichael et al., (1996) with modifications. Four human tumoral cell lines, namely HCT116 colon adenocarcinoma, H460 lung carcinoma, MCF-7 and MDA-MB-231 breast carcinoma cell lines, and 3 immortalized but non tumorigenic cell lines, namely NIH3T3 mouse fibroblasts and human breast-derived MCF10-A and human lung-derived MRC-5 were purchased at ATCC and cultured according to their recommendations. Briefly, 2.5 10^3 to 2 10^4 cells per well were seeded in 48-well plates 24 hours before drug addition. Cells were treated with 0 to 200 μM (11 concentrations) of compound solubilized in DMSO, adjusting the final concentration of DMSO to 1% in the well. Six days after treatment, the medium was replaced by PBS containing 0.5 mg/ml MTT (Sigma) and cells were incubated for 1-3 hours at 37° C. before solubilization of formazan crystals in 100% DMSO. Absorbance was measured using a spectrophotometer at a wavelength of 550 nm. Data was analyzed using the GraphPad Prism software (GraphPad Software, Inc., San Diego, USA), and IC50 (dose leading to 50% cell death) was calculated from the dose-response curves.

In a further data set the test system is MDA-MB-231 cells. The data set is described as follows: Matrigel invasion assay (Boyden chamber). The data set is classed as cell-based, human. To be noted: MDA-MB-231, Boyden chamber, matrigel. Here is the method: Chemoinvasion assay was performed in Boyden chamber as described by Albini et al (Cancer Res, 1987) with some modifications. Polycarbonate membranes with 8 μm pores were coated with matrigel (125 μg/cm^2) at room temperature for 48 h. Two hours before experiments, the matrix was […] with serum-free medium containing 0.1% BSA.
One day after seeding, 10^6 MDA-MB-231 cells were treated overnight with different concentrations of compounds (1, 10, 17.5, 25 and 50 μM). Cells were collected with Versene (Invitrogen), counted with trypan blue exclusion, rinsed twice in serum-free medium containing 0.1% BSA and resuspended in serum-free medium containing 0.1% BSA plus the appropriate concentration of compound. 10^5 treated cells were placed in the upper chamber. Medium containing 10% of FBS plus the appropriate concentration of compound was placed in the lower chamber as a chemoattractant. The Boyden chamber was incubated 6 hours at 37° C. before the cells were fixed and stained with Diff-Quick (Dade-Berhing). Cells on the upper part of the filters were removed using a cotton swab. Cells on the underside of the filters were visualised and counted under light microscope.

A further data set relates to cell architecture. The data set is described as follows: Cell architecture modification, phase contrast. The data set is classed as cell-based. Details: key: −: no effect of the compound was observed; +: an effect of the compound was observed.

The term melting point denotes the temperature of the solid-liquid transition.

For the compound `C/C=C/c1oc(C(=O)O)cc(=O)c1OCCCCCOc1ccc(Cl)cc1` [EH17401, (E)-3-[5-(4-Chlorophenyloxy)pentyloxy]-2-(propen-1-yl)-4-oxo-4H-pyran-6-carboxylic acid], the IC50 (in the data set on H460 lung carcinoma; in the data set on MCF-7 breast carcinoma; in [1]; with NIH3T3 mouse fibroblasts; in [2]) was more than 50 µM in each case.
`O=c1cc(COC2CCCCO2)occ1OCCCCCn1ccc2ccc(Cl)cc21` (centres unmarked) [EHT 8617, 5-[5-(6-Chloro-indol-1-yl)-pentyloxy]-2-(tetrahydro-pyran-2-yloxymethyl)-4H-pyran-4-one]: the IC50 with HCT116 is 1.5 to 4 µM.
In the case of `C/C=C/c1oc(C(=O)O)cc(=O)c1OCCCCCOc1ccccc1CCC` [EH15301, (E)-2-(Propen-1-yl)-3-[5-(2-propylphenyloxy)pentyloxy]-4-oxo-4H-pyran-6-carboxylic acid], the IC50 (with H460 lung carcinoma; in the data set on MCF-7 breast carcinoma; in [1]; in the data set on NIH3T3 mouse fibroblasts; in data set [2]) was more than 50 µM in each case.
Consider `C/C=C/c1oc(C(=O)O)cc(=O)c1OCCCCCOc1cccc(Cl)c1` [EH18401, (E)-3-[5-(3-Chlorophenyloxy)pentyloxy]-2-(propen-1-yl)-4-oxo-4H-pyran-6-carboxylic acid], for which the IC50 (in the data set on H460 lung carcinoma; with MCF-7 breast carcinoma; in data set [1]; in the data set with NIH3T3 mouse fibroblasts; in data set [2]) was more than 50 µM throughout.
In the case of `C/C=C/c1oc(C(=O)O)cc(=O)c1OCCCCCOc1ccc(Cl)c(Cl)c1CCC` [EH22501, (E)-3-[5-(3,4-Dichloro-2-propylphenyloxy)pentyloxy]-2-(propen-1-yl)-4-oxo-4H-pyran-6-carboxylic acid], the IC50 was more than 50 µM in the data set on H460 lung carcinoma; more than 50 µM in the data set on MCF-7 breast carcinoma; 50 µM in data set [1]; more than 50 µM in the data set with NIH3T3 mouse fibroblasts; more than 50 µM in data set [2].
In the case of `O=C(NC1CCCCC1)OCc1cc(=O)c(OCCCCCn2ccc3ccccc32)co1` [EHT 6231, Cyclohexyl-carbamic acid 5-(5-indol-1-yl-pentyloxy)-4-oxo-4H-pyran-2-ylmethyl ester], the “IC50 fold higher as compared to compound EHT 7395” value in the data set with HCT116 (MTT, HCT116) is reported as 2 fold.
With `C/C=C/c1oc(C(=O)O)cc(=O)c1OCCCCCOc1ccc(Cl)c(Cl)c1` [EH10501], the IC50 (in the data set with H460 lung carcinoma; in the data set on MCF-7 breast carcinoma; in [1]; in the data set with NIH3T3 mouse fibroblasts; in data set [2]) was more than 50 µM each time.
For the compound `O=C(OCc1cc(=O)c(OCCCCCn2ccc3ccccc32)co1)C1CCCCC1` [EHT 2253, Cyclohexanecarboxylic acid 5-(5-indol-1-yl-pentyloxy)-4-oxo-4H-pyran-2-ylmethyl ester], the melting point was 62 to 66 °C.
On to `O=c1cc(CO)occ1OCCCCCn1cnc2c(Cl)ncnc21` [EHT 0248, 5-[5-(6-Chloro-purin-9-yl)-pentyloxy]-2-hydroxymethyl-4H-pyran-4-one], for which, in the data set with HCT116, the IC50 was more than 100 µM.
Same read-out and setting: under `C/C=C/c1oc(CO)cc(=O)c1OCCCCCOc1ccc(Cl)cc1CCC` [EHT 1405, (E)-3-[5-(4-chloro-2-propyl-phenoxy)-pentyloxy]-6-hydroxymethyl-2-propenyl-4H-pyran-4-one] stands 4 µM.
With `CCOc1ccccc1OCCCCCOc1coc(CO)cc1=O` [EH18601, 5-[5-(2-Ethyloxyphenyloxy)pentyloxy]-2-(hydroxymethyl)-4H-pyran-4-one], the IC50 was 25 µM in the data set with H460 lung carcinoma; 15 µM in the data set on MCF-7 breast carcinoma; more than 50 µM in [1]; more than 50 µM with NIH3T3 mouse fibroblasts; 50 µM in [2]. Further, the Invasion result in the data set on MDA-MB-231 cells is recorded as “No effect”. In addition, in the data set with cell architecture, the “Cell architecture modification phase contrast” value is listed as “−”.
Consider `O=C(Nc1ccccc1)OCc1cc(=O)c(OCCCCCn2ccc3ccccc32)co1` [EHT 4902, Phenyl-carbamic acid 5-(5-indol-1-yl-pentyloxy)-4-oxo-4H-pyran-2-ylmethyl ester], for which the melting point is 150 °C (dec.).
On the same count and under the same terms, under `CCCc1c(Cl)cc(Cl)cc1OCCCCCOc1coc(CO)cc1=O` [EHT 2991] stands 77 to 79 °C; under `C=CCc1c(Cl)cc(Cl)cc1OCCCCCOc1coc(CO)cc1=O` [EHT 6978, 5-[5-(2-Allyl-3,5-dichloro-phenoxy)-pentyloxy]-2-hydroxymethyl-4H-pyran-4-one], 59 to 61 °C; under `O=C(Nc1ccc(Cl)cc1)OCc1cc(=O)c(OCCCCCn2ccc3ccccc32)co1` [EHT 2232, (4-Chloro-phenyl)-carbamic acid 5-(5-indol-1-yl-pentyloxy)-4-oxo-4H-pyran-2-ylmethyl ester], 170 to 171 °C.
Consider `O=c1cc(CO)occ1OCCCCCN1CCc2ccccc21` [EHT 8650, 5-[5-(2,3-Dihydro-indol-1-yl)-pentyloxy]-2-hydroxymethyl-4H-pyran-4-one], for which the IC50 in the data set on HCT116 is more than 100 µM.
With `C=CCc1cc(Cl)ccc1OCCCCCOc1coc(CO)cc1=O` [EHT 5431, 5-[5-(2-Allyl-4-chloro-phenoxy)-pentyloxy]-2-hydroxymethyl-4H-pyran-4-one], the melting point fell in the range of 98 to 100 °C.
Still for that read-out and setting: under `C/C=C/c1oc(CO)cc(=O)c1OCCCCCOc1cc(C(F)(F)F)cc(C(F)(F)F)c1` [EHT 5403, (E)-3-[5-(3,5-Bis-trifluoromethyl-phenoxy)-pentyloxy]-6-hydroxymethyl-2-propenyl-4H-pyran-4-one] stands 90 to 92 °C.
